Test results taken from patent publication US9885060B2, “Alkene production” (Evonik Degussa GmbH, priority 2015, dated 2018).

Legend:
Type in all cases: biochemical
OleT [1] = experiment: Trapping, derivatization (Br2/DCM impinger) and quantification of 1-butene and 1-propene formed by the OleT-CamAB-FDH cascade; conditions: 10 mM substrate, 10 ml scale
Description: FIG. 7 is a picture of a novel reaction set up for trapping volatile α-olefins, such as 1-propene and 1-butene. A small impinger containing 10 ml of a 20 mM Br2/DCM solution was placed on top of the flask serving as sole gas outlet and trap for α-olefin products. The functionality of this system was successfully confirmed using an analytical standard of 1-heptene. The concept for derivatization and trapping of volatile α-olefins is shown in Scheme 2.
Production of 1-propene and 1-butene was initially confirmed using manual headspace GC-MS injection. Since the quantification of 1-propene and 1-butene using analytical standards was not feasible, a novel trapping/derivatization system for highly volatile short-chain α-olefins derived from biocatalytic reactions was designed. […]
The obtained products were analyzed by GC-FID and GC-MS using analytical standards of 1,2-dibromobutane and 1,2-dibromopropane. Due to the (visible) gas exhaust (CO2 production by OleT and FDH) and strong evaporation of DCM (˜70% volume lost after 24 h), the residual volume in the impinger was determined to allow reliable product quantification. Calibration curves for 1,2-dibromobutane and 1,2-dibromopropane were prepared to allow quantification of produced 1-propene and 1-butene (not shown). […]

OleT [2] = experiment: Decarboxylation of FAs C22 to C4 employing the FDH-CamAB-OleT redox-cascade; conditions: for Conversion / α-Olefin / Selectivity n-Alkanone / Selectivity α-OH / Selectivity α-Olefin / Selectivity β-OH: 10 mM substrate
Description: (§1) Enzymatic reactions (1 mL scale) were quenched by addition of 100 μL 5 N Extraction of substrate and products was performed with 500 μL EtOAc containing 0.1% 1-decanol as internal standard. The organic phase was dried over anhydrous Na2SO4. Derivatization of carboxylic acids (fatty acids and hydroxy acids) to the corresponding methyl esters was achieved by mixing the organic phase with MeOH (2.5:1.5 v/v) followed by supplementation of 5 to 15 μL of 2 M TMSCHN2 (trimethylsilyldiazomethane in diethyl ether). The mixture was incubated for 30 min, 25° C. and 750 rpm before injection into GC-FID or GC-MS, Extraction and derivatization of products and substrates from conversion of short chain FAs ([…]) was performed using the same protocol but all steps were performed on ice to prevent undesired loss of volatile products.
(§2) Products from FA substrates with chain lengths ranging from C22 to C10 were separated on a HP5 column (Programm) and detected by GC-FID or GC-MS. Extracted products from conversion of nonanoic acid (I-octene as product) were separated on a DB1702 column (Programm) and detected by GC-FID. Authentic standards of substrates and terminal olefins were treated as described above and were used as references for identification and preparation of calibration curves. Detection of volatile short chain terminal olefins (1-butene/1-propene [ongoing] to 1-heptene) was accomplished by manual injection from vial headspaces into GC-MS, in order to prevent loss of products, the vials containing the reaction mixtures were sealed with a PTFE septum. After conversion the closed vial was heated for 10 min at 80° C., together with a 10 ml syringe (TYPE). From the headspace 2 to 9 μl volumes were injected splitless into a GC-MS chromatograph and analytes were separated on a HP5 column (Programm). Calibration curves for 1-pentene, 1-hexene and 1-heptene were prepared in the same way at 4° C. and using 5% DMF as cosolvent.
The substrate scope of OleT was further investigated by varying the FA chain length from C3 to C22. […] For the first time, short EAs could be decarboxylated to the corresponding olefins, covering the whole spectrum from C11 down to C4. […] Due to the high volatility of short chain olefins, product work up was done at 4° C. […] (2.53 mM product from 5 mM lauric acid). Head-space analysis by GC-MS from reactions with short chain FAs (C8-C5) confirmed the formation of the respective α-olefins, allowing the first biotechnological access to 1-heptene, 1-hexene and 1-pentene and 1-butene with OleT.
Conversion of heptanoic acid was carried out as described in Example 4 using the OleTCamAB-FDH reaction cascade.
Calibration curves for 1-hexene were prepared accordingly ranging from 0.05 to 2 mM. Due to a strong overlap of […] with the peak areas of CO2 and EtOH (FIG. 1, peaks a, b and c) the ion extraction mode of the GC-MS to generate reliable calibration curves was used. Neither CO2 nor EtOH interfered with the product peak area. This can be seen comparing FIGS. 1 and 5 which allow reliable and linear quantification of 1-hexene (FIG. 6) using manual headspace GC-MS injection.
Manual headspace injection into GC-MS was successfully performed for all substrates with chain lengths of C11 to C6. Conversion of 10 mM heptanoic acid allowed reliable formation of up to 1.3 mM 1-hexene without further optimization of the reaction conditions.

OleT [3] = experiment: Decarboxylation of stearic and palmitic acid by OleT using O2/CamAB or H2O2 as oxidant; conditions: 1 μM OleT, 1 mM substrate
OleT [4] = experiment: Decarboxylation of stearic acid by OleT with CamAB redox cascade and NAD(P)H regeneration system (GDH, PDH, FDH)
Description: as §1, §2
(§3) After 24 h reaction time, product concentrations of 1.16 mM (0.27 g L-1) 1-heptadecene and 1 mM (0.21 g L-1) 1-pentadecene were obtained but could not be further enhanced. […] Compared to a previously published whole cell reaction system, this FDH-driven system allows 6 times higher product titer and a 21 times higher volumetric productivity with 42.5 mg L-1 h-1 of α-olefin after 8 h reaction time vs: 98 mg L-1 in 48 h) (Table 2).

OleT [5] = experiment: Inhibitory effect of gluconic acid on OleT productivity; conditions: 10 mM gluconic acid
Description: as §3

[6] = 200 μM NADPH + O2, CamAB, 60 min
[7] = 1 mM H2O2, 150 min, no CamAB, strong precipitation observed
[8] = 1 mM NADPH + O2, CamAB, 150 min
[9] = FDH-based regeneration, 5 mM stearic acid
[10] = Formate [8 h], FDH-CamAB, purified OleT 3 μM, 5 mM stearic acid
[11] = Formate, FDH-(Fdr/Fdx) without CamAB, cell free lysate OleT 3 μM, 5 mM stearic acid, 24 h
[12] = Formate, FDH-CamAB, purified OleT 1.5 μM, 5 mM stearic acid, 24 h
[13] = Formate, FDH-CamAB-Fdr/Fdx, cell free lysate OleT 3 μM, 5 mM stearic acid, 24 h
[14] = Glucose, GDH-CamAB, purified OleT 1.5 μM, 5 mM stearic acid, 24 h
[15] = PDH-based regeneration, 5 mM stearic acid
[16] = Phosphite, PDH-CamAB, purified OleT 1.5 μM, 5 mM stearic acid, 24 h

## CCCC(=O)O [C4, butyric acid]
OleT [1]
  α-olefin formed (trapped as 1,2-dibromoalkane): 504 µM
OleT [2]; 25 °C, 24 h
  Conversion: 5%
  α-Olefin: 504 µM

## CCCCCCCCCCCCCCCCCC(=O)O [Stearic Acid, stearic acid]
OleT [3]; 200 μM H2O2, 60 min, no CamAB
  Coupling: 85%
  TOF: 170 h⁻¹
  TON: 170
  α-Olefin: 170 ± 7 µM
OleT [3]; 200 μM NADH + O2, CamAB, 6 min
  Coupling: 7%
  TOF: 150 h⁻¹
  TON: 15
  α-Olefin: 15 ± 1 µM
OleT [3]; [6]
  Coupling: 25%
  TOF: 53 h⁻¹
  TON: 53
  α-Olefin: 53 ± 5 µM
OleT [3]; [7]
  Coupling: 5%
  TOF: 21 h⁻¹
  TON: 53
  α-Olefin: 53 ± 15 µM
OleT [3]; 1 mM NADH + O2, CamAB, 60 min
  Coupling: 2%
  TOF: 20 h⁻¹
  TON: 20
  α-Olefin: 20 ± 2 µM
OleT [3]; [8]
  Coupling: 11%
  TOF: 47 h⁻¹
  TON: 118
  α-Olefin: 118 ± 23 µM
OleT [2]; 4 °C, 72 h
  Conversion: 25%
  Selectivity n-Alkanone: 5 % GC-area
  Selectivity α-OH: <1 % GC-area
  Selectivity α-Olefin: 93 % GC-area
  Selectivity β-OH: 5 % GC-area
  α-Olefin: 2451 µM
OleT [2]; 25 °C, 24 h
  Conversion: 39%
  Selectivity n-Alkanone: 6 % GC-area
  Selectivity α-OH: 2 % GC-area
  Selectivity α-Olefin: 86 % GC-area
  Selectivity β-OH: 8 % GC-area
  α-Olefin: 3886 µM
OleT [2]; RT, 5 mM stearic acid
  maximum product concentration: 2.45 mM
OleT [4]; [9]
  Conversion: 62%
  TIN: 2096
OleT [4]; FDH-driven system, after 8 h reaction time
  volumetric productivity of α-olefin: 42.5 mg/L/h
OleT [4]; [10]
  Product: 0.34 g/L
  TTN: 473
  α-Olefin: 1419 µM
OleT [4]; [11]
  Product: 0.1 g/L
  TTN: 151
  α-Olefin: 452 ± 52 µM
OleT [4]; [12]
  Product: 0.75 g/L
  TTN: 2096
  α-Olefin: 3144 ± 121 µM
OleT [4]; [13]
  Product: 0.37 g/L
  TTN: 522
  α-Olefin: 1565 ± 20 µM
OleT [4]; GDH-based system, 1 mM stearic acid
  Conversion: 36%
OleT [4]; GDH-based system, 10 mM stearic acid
  TIN: up to 389
OleT [4]; [14]
  Product: 0.24 g/L
  TTN: 680
  α-Olefin: 1020 ± 63 µM
OleT [4]; [15]
  Conversion: 52%
  TIN: 1739
OleT [4]; [16]
  Product: 0.62 g/L
  TTN: 1739
  α-Olefin: 2609 ± 256 µM

## O=C(O)[C@H](O)[C@@H](O)[C@H](O)[C@H](O)CO [gluconic acid]
OleT [5]
  reduction of OleT productivity: 28%

## CCCCC(=O)O [C5, valeric acid]
OleT [1]
  α-olefin formed (trapped as 1,2-dibromoalkane): 834 µM
OleT [2]; 25 °C, 24 h
  Conversion: 8.3%
  α-Olefin: 834 µM
